Experiments:
white ears = test: Trial of the combination Chlorantraniliprole+Novaluron+Bifenthrin on white ears in paddy; format: in vivo; settings: solo
Method: Trials were conducted to test the efficacy of the combination of Chlorantraniliprole+Novaluron+Bifenthrin on white ears in paddy: […]

Fruit and shoot borer = test: Trial of the combination Chlorantraniliprole+Novaluron+Bifenthrin on Fruit and shoot borer in paddy; format: in vivo; settings: solo
Method: Trials were conducted to test the efficacy of the combination of Chlorantraniliprole+Novaluron+Bifenthrin on Fruit and shoot borer in paddy: […]

Cc1c(COC(=O)[C@@H]2[C@H](/C=C(\Cl)C(F)(F)F)C2(C)C)cccc1-c1ccccc1 (racemic) [Bifenthrin]
Percent control Fruit and shoot borer (white ears; 3 DAA, dose 60 gm ai/ha): 80%
Percent control Fruit and shoot borer (white ears; 7 DAA, dose 60 gm ai/ha): 79%
Percent control Fruit and shoot borer (white ears; 10 DAA, dose 60 gm ai/ha): 55%
Percent control Fruit and shoot borer (white ears; 14 DAA, dose 60 gm ai/ha): 38%
Percent control Fruit and shoot borer (Fruit and shoot borer; 3 DAA, dose 60 gm ai/ha): 54.3%
Percent control Fruit and shoot borer (Fruit and shoot borer; 7 DAA, dose 60 gm ai/ha): 71%
Percent control Fruit and shoot borer (Fruit and shoot borer; 10 DAA, dose 60 gm ai/ha): 64.3%
Percent control Fruit and shoot borer (Fruit and shoot borer; 14 DAA, dose 60 gm ai/ha): 58.3%

CNC(=O)c1cc(Cl)cc(C)c1NC(=O)c1cc(Br)nn1-c1ncccc1Cl [Chlorantraniliprole, 3-bromo-4′-chloro-1-(3-chloro-2-pyridyl)-2′-methyl-6′-(methylcarbamoyl)pyrazole-5-carboxanilide]
Percent control Fruit and shoot borer (white ears; 3 DAA, dose 30 gm ai/ha): 5%
Percent control Fruit and shoot borer (white ears; 7 DAA, dose 30 gm ai/ha): 6%
Percent control Fruit and shoot borer (white ears; 10 DAA, dose 30 gm ai/ha): 5.9%
Percent control Fruit and shoot borer (white ears; 14 DAA, dose 30 gm ai/ha): 4.9%
Percent control Fruit and shoot borer (Fruit and shoot borer; 3 DAA, dose 30 gm ai/ha): 79.3%
Percent control Fruit and shoot borer (Fruit and shoot borer; 7 DAA, dose 30 gm ai/ha): 90%
Percent control Fruit and shoot borer (Fruit and shoot borer; 10 DAA, dose 30 gm ai/ha): 88.3%
Percent control Fruit and shoot borer (Fruit and shoot borer; 14 DAA, dose 30 gm ai/ha): 78.4%

O=C(NC(=O)c1c(F)cccc1F)Nc1ccc(OC(F)(F)C(F)OC(F)(F)F)c(Cl)c1 (stereo not drawn) [Novaluron]
Percent control Fruit and shoot borer (white ears; 3 DAA, dose 100 gm ai/ha): 5%
Percent control Fruit and shoot borer (white ears; 7 DAA, dose 100 gm ai/ha): 6%
Percent control Fruit and shoot borer (white ears; 10 DAA, dose 100 gm ai/ha): 5.9%
Percent control Fruit and shoot borer (white ears; 14 DAA, dose 100 gm ai/ha): 4.9%
Percent control Fruit and shoot borer (Fruit and shoot borer; 3 DAA, dose 100 gm ai/ha): 64.3%
Percent control Fruit and shoot borer (Fruit and shoot borer; 7 DAA, dose 100 gm ai/ha): 75%
Percent control Fruit and shoot borer (Fruit and shoot borer; 10 DAA, dose 100 gm ai/ha): 68.3%
Percent control Fruit and shoot borer (Fruit and shoot borer; 14 DAA, dose 100 gm ai/ha): 64.3%

Source: patent US12161117B2, “Agrochemical combinations” (UPL LTD, priority 2018, dated 2024)
